Peptide text beside a SMILES is read from it. * marks the point of attachment. Palmitoyl = CCCCCCCCCCCCCCCC(=O)*

This experiment deals with HIV-1 ENV-mediated fusion of Jurkat HXBc2 (effector) with Jurkat E6-1 (target) cells. Nature of the experiment: Cell-cell fusion inhibition assay (DiI/DiD lipophilic probes, flow cytometry). Format: cell-based. The conditions noted are these: Jurkat E6-1 + Jurkat HXBc2 1:1, co-incubated 6 h, eight peptide concentrations, FACS, Hill-type fit; at least four independent experiments, ± standard deviation. On the procedure:
The protocol utilizing Jurkat E6-1 and Jurkat HXBc2 cells for a cell-cell fusion assay was previously described. In short, Jurkat E6-1 and Jurkat HXBc2 cells were labeled with DiI and DiD lipophilic fluorescent probes, respectively. The two cell populations were co-incubated, in a ratio of 1∶1, for 6 h in the presence of eight different concentrations of the inhibitory peptides. Prior to measurements the cells were washed, spinned, dissolved in PBS, and put on ice. Cells co-incubated without the presence of peptides served as an optimal fusion reference. Unlabeled cells that were handled similarly served as an intrinsic fluorescence control. Cells labeled separately with DiI or DiD were used to adjust the optimal separation of fluorescent signals. Jurkat HXBc2 cells labeled with DiI were co-incubated with Jurkat HXBc2 cells labeled with DiD for a fusion background that was subtracted from the measurements of the experiment. The following alterations were applied to the original protocol: (i) 5 µL of a 1 mg/mL DiI or DiD solution in dimethylsulfoxide (DMSO) was added to 1 mL of 4×10^6 cells/mL Jurkat E6-1 or Jurkat HXBc2 cells, respectively. (ii) For each data point 150,000 events were collected. Measurements were performed on a FACSort machine, upgraded to a FACSCalibur cell analyzer (Becton Dickinson). […] For the fitting, we uploaded the X and Y values of the raw data (after subtracting the background) into a nonlinear least squares regression (curve fitter) program that provided the IC50 value (A of the equation), as well as the c value.
With `CCCCCCCCCCCCCCCC(=O)N[C@@H](CO)C(=O)NCC(=O)N[C@H](C(=O)N[C@@H](CC(=O)O)C(=O)N[C@@H](CCC(N)=O)C(=O)N[C@@H](CCC(=O)O)C(=O)N[C@@H](CCC(N)=O)C(=O)N[C@@H](CC(N)=O)C(=O)N[C@@H](CC(N)=O)C(=O)N[C@@H](CC(C)C)C(=O)N[C@H](C(=O)N[C@@H](CCCNC(=N)N)C(=O)N[C@@H](CC(C)C)C(=O)N[C@H](C(=O)N[C@@H](CCC(=O)O)C(=O)N[C@@H](C)C(=O)N[C@@H](CCC(N)=O)C(=O)N[C@H](C(=O)N[C@@H](Cc1c[nH]cn1)C(=O)N[C@@H](CCC(=O)O)C(=O)N[C@@H](CC(C)C)C(=O)N[C@@H](CCC(N)=O)C(=O)N[C@@H](CC(C)C)C(=O)N[C@H](C(=O)N[C@@H](CCC(N)=O)C(=O)N[C@@H](Cc1c[nH]c2ccccc12)C(=O)N[C@@H](CCCCN)C(=O)N[C@H](C(=O)N[C@@H](CCCCN)C(=O)N[C@@H](CCC(N)=O)C(=O)N[C@@H](CC(C)C)C(=O)N[C@@H](CC(C)C)C(=O)N[C@@H](C)C(=O)N[C@@H](CCCNC(=N)N)C(=O)N[C@H](C(=O)N[C@@H](CC(C)C)C(=O)N[C@@H](CCCCN)C(N)=O)[C@@H](C)CC)[C@@H](C)CC)[C@@H](C)O)[C@@H](C)CC)[C@@H](C)CC)[C@@H](C)O)[C@@H](C)CC` [C16-N36 MUTe,g] (Palmitoyl-SGIDQEQNNLTRLIEAQIHELQLTQWKIKQLLARILK-NH2), the IC50 is 162 ± 4 nM.
For `CCCCCCCCCCCCCCCC(=O)NCCCC[C@H](NC(=O)[C@H](CC(C)C)NC(=O)[C@@H](NC(=O)[C@H](CCCNC(=N)N)NC(=O)[C@H](C)NC(=O)[C@H](CC(C)C)NC(=O)[C@H](CC(C)C)NC(=O)[C@H](CCC(N)=O)NC(=O)[C@H](CCCCN)NC(=O)[C@@H](NC(=O)[C@H](CCCCN)NC(=O)[C@H](Cc1c[nH]c2ccccc12)NC(=O)[C@H](CCC(N)=O)NC(=O)[C@@H](NC(=O)[C@H](CC(C)C)NC(=O)[C@H](CCC(N)=O)NC(=O)[C@H](CC(C)C)NC(=O)[C@H](CCC(=O)O)NC(=O)[C@H](Cc1c[nH]cn1)NC(=O)[C@@H](NC(=O)[C@H](CCC(N)=O)NC(=O)[C@H](C)NC(=O)[C@H](CCC(=O)O)NC(=O)[C@@H](NC(=O)[C@H](CC(C)C)NC(=O)[C@H](CCCNC(=N)N)NC(=O)[C@@H](NC(=O)[C@H](CC(C)C)NC(=O)[C@H](CC(N)=O)NC(=O)[C@H](CC(N)=O)NC(=O)[C@H](CCC(N)=O)NC(=O)[C@H](CCC(=O)O)NC(=O)[C@H](CCC(N)=O)NC(=O)[C@H](CC(=O)O)NC(=O)[C@@H](NC(=O)CNC(=O)[C@@H](N)CO)[C@@H](C)CC)[C@@H](C)O)[C@@H](C)CC)[C@@H](C)CC)[C@@H](C)O)[C@@H](C)CC)[C@@H](C)CC)C(N)=O` [N36 MUTe,g-C16] (H-SGIDQEQNNLTRLIEAQIHELQLTQWKIKQLLARILK(Palmitoyl)-NH2), the half-inhibitory concentration (IC50) turned out to be 8.8 ± 4 nM.
Regarding “H-SGIDQEQNNLTRLIEAQIHELQLTQWKIKQLLARILK-NH2 [N36 MUTe,g, reference compound]”, the half-maximal inhibitory concentration (IC50) is 936 ± 36 nM.

The values above are taken from paper PMC2699469 (PLoS Pathogens, 2009).
